Patent US5674909A, “Derivatives of 2-amino-1,2,3,4-tetrahydronaphthalene active on the cardiovascular system” (Zambon Group, priority 1994, dated 1997)
Where a name gives a salt, the structure may show the parent alone.

Key:
D1 receptor = D1 receptor (Rattus norvegicus, UniProt P18901); assay: biochemical; assay type: binding, rat (Sprague-Dawley); details: [3H]-SCH23390 0.2 nM, rat striated membranes, pH 7.4, 37° C., 20 minutes; read-out: Affinity [K1 (nM)] towards D1 receptor
Method: (§1) The tissue were homogenized in 50 mM Tris/HCl buffer at pH 7.4 (1:100 w/v).
(§2) The homogenate was centrifuged and the pellet resuspended, recentrifuged and resuspended again in 50 mM Tris/HCl buffer at pH 7.4 containing 120 mM NaCl, 5 mM KCl, 2 mM CaCl2 and 1 mM MgCl2.
The mixture was incubated with different concentrations of the tested compounds at 37° C. for 20 minutes, filtered under vacuum through Whatman GF/C filters and then washed 4 times with 5 ml of 50 mM Tris/HCl buffer (pH 7.4) cooled with ice.

D2 receptor = D2 receptor (Rattus norvegicus, UniProt P61169); assay: biochemical; assay type: binding, rat (Sprague-Dawley); details: [3H]-domperidone 0.3 nM, rat striated membranes, 0.01% BSA, 37° C., 30 minutes; read-out: Affinity [K1 (nM)] towards D2 receptor
Method: as §1, §2
Furthermore, bovine serum albumine (BSA) (0.01%) was added.
The mixture was incubated at 37° C. for 30 minutes for each concentration of tested compounds.

[1] = test system: D1 -like (Rabbit Splenic Artery); assay: D1-like activity in the Rabbit Splenic Artery (RSA) test; details: agonist activity at the peak of the effect; contracted with U46619 0.1 μM
Method: Arterial rings were prepared according to Semeraro et al., Naunyn. Schmied. Arch. Pharmacol., 1990, 342, 539.
The arterial preparations were contracted with U46619 (9,11-di-deoxy-11α,9α-epoxy-methanoprostaglandin F2α) at the submaximal concentration 0.1 μM.
(§3) The tested compounds were cumulatively administered.
(§4) Ref. A was used as reference substance.
(§5) Agonist activity evaluated at the peak of the effect and expressed as potency ratio (EC50 of Ref. A/EC50 of tested compound) is reported in table 2.

[2] = target: T1, D2 -like (Rabbit Ear Artery) (Oryctolagus cuniculus, UniProt G1T1Q0); assay: D2-like activity in the Rabbit Ear Artery (REA) test; parameters: species or system New Zealand rabbit; details: agonist activity at the peak of the effect; electrically stimulated
T1 construct: the central ear artery was dissected into 3 mm long rings; from tissue; host or cells: rabbit central ear artery rings (male New Zealand rabbits), electrically stimulated
Method: Arterial rings were prepared according to the method described by Steinsland et al., Science, 1978, 443, 199, modified as follows. Male New Zealand rabbits weighing 2.5-3 Kg were sacrificed by intravenous injection of an excess of pentobarbital sodium and exsanguinated. The two ears were taken away and the central ear artery was dissected into 3 mm long rings.
These preparations were set up in a 25 ml organ bath containing Krebs solution (mM/l): NaCl 118, KCl 4.7, CaCl2 2.5, MgSO4 1.2, NaHCO3 25, KH2 PO4 1.2, glucose 11.1, equilibrated with 95% 02 -5% CO2 and maintained at 35°±1° C.
Krebs solution was medicated with EDTA (10 μM) to prevent cathecolamine oxydation, desipramine (0.1 μM) and corticosterone (30 μM), to block neuronal and extraneuronal cathecolamine uptake. The preparations were electrically stimulated (10 Hz, 1 msec, 40-80 mA, 500 msec duration) at 5 minutes intervals.
as §3, §4, §5

Chain of D2 receptor (P61169 whole entry): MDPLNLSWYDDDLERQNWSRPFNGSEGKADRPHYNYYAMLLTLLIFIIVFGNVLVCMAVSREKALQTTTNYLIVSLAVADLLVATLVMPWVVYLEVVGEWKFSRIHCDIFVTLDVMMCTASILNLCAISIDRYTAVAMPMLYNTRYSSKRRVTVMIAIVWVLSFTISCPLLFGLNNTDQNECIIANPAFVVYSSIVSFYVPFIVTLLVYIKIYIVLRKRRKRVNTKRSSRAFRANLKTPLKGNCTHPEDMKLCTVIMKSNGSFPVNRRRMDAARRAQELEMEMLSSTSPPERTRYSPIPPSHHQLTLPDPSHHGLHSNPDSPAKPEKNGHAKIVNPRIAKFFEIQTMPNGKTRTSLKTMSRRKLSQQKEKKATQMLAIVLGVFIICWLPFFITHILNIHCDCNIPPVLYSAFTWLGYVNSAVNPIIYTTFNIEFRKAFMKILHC
T1 sequence (G1T1Q0 1-443): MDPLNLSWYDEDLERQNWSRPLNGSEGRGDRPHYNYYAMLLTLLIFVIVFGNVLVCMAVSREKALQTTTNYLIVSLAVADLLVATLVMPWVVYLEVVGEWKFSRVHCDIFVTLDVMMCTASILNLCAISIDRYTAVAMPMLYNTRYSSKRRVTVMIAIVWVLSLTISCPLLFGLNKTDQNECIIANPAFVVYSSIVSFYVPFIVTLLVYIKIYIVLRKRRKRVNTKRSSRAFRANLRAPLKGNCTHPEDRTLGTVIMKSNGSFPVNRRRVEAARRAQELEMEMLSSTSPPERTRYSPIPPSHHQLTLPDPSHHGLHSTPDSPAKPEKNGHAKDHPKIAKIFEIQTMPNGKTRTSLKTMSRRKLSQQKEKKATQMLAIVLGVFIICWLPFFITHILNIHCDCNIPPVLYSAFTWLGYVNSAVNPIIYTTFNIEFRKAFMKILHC
Chain of D1 receptor (P18901 whole entry): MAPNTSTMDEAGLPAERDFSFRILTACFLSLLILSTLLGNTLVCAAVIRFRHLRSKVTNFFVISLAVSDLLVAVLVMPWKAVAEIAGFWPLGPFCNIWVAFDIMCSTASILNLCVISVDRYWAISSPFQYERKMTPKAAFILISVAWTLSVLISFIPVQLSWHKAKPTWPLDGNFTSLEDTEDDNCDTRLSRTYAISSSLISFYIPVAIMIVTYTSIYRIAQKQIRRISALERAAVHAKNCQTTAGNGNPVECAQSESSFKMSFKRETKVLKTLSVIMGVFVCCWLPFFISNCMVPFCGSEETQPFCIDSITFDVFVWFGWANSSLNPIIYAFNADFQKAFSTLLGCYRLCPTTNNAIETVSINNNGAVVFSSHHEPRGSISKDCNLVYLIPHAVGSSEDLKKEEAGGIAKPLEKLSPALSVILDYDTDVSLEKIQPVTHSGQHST

Ki (D1 receptor) [nM] | Ki (D2 receptor) [nM] | D1 -like (RSA) potency ratio (EC50 of Ref. A/EC50 of tested compound) [1] | D2 -like (REA) potency ratio (EC50 of Ref. A/EC50 of tested compound) [2] | SMILES
49 | 0.66 |  |  | CCCN(CCCCCCNCC1COc2ccccc2O1)[C@H]1CCc2c(ccc(O)c2O)C1 (stereo partly drawn) [Compound 1, (S)-N-propyl-N-[6-[(1,4-benzodioxan-2-yl)methylamino]hexyl]-5,6-dihydroxy-1,2,3,4-tetrahydro-2-naphthylamine dihydrochloride]
25 | 0.4 | 10 | 0.3 | CCCN(CCCCCCNCCc1ccc2c(c1)OCO2)[C@H]1CCc2c(ccc(O)c2O)C1.Cl.Cl [Compound 2, (S)-N-propyl-N-[6-[2-(3,4-methylendioxyphenyl)ethylamino]hexyl]-5,6-dihydroxy-1,2,3,4-tetrahydro-2-naphthylamine dihydrochloride]
69 | 0.31 |  |  | CCCN(CCCCCCN1CCN(c2ccccc2OC)CC1)[C@H]1CCc2c(ccc(O)c2O)C1 [Compound 3, (S)-N-propyl-N-[6-[4-(2-methoxyphenyl)piperazin-1-yl]hexyl]-5,6-dihydroxy-1,2,3,4-tetrahydro-2-naphthylamine trihydrochloride]
78 | 1.1 |  |  | CCCN(CCCCCCNCCOc1ccccc1[N+](=O)[O-])[C@H]1CCc2c(ccc(O)c2O)C1 [Compound 4, (S)-N-propyl-N-[6-[2-(2-nitrophenoxy)ethylamino]hexyl]-5,6-dihydroxy-1,2,3,4-tetrahydro-2-naphthylamine dihydrochloride]
69 | 1.5 |  |  | CCCN(CCCCCCNCCOc1ccc([N+](=O)[O-])cc1)[C@H]1CCc2c(ccc(O)c2O)C1 [Compound 5, (S)-N-propyl-N-[6-[2-(4-nitrophenoxy)ethylamino]hexyl]-5,6-dihydroxy-1,2,3,4-tetrahydro-2-naphthylamine dihydrochloride]
81 | 1.3 | 10 | 3 | CCCN(CCCCCCNCCOc1ccc(S(C)(=O)=O)cc1)[C@H]1CCc2c(ccc(O)c2O)C1.Cl.Cl [Compound 6, (S)-N-propyl-N-[6-[2-(4-methylsulphonylphenoxy)ethylamino]hexyl]-5,6-dihydroxy-1,2,3,4-tetrahydro-2-naphthylamine dihydrochloride]
370 | 0.25 |  |  | CCCN(CCCCCCNC(=O)COc1ccccc1OC)[C@H]1CCc2c(ccc(O)c2O)C1 [Compound 7, (S)-N-propyl-N-[6-[(2-methoxyphenoxy)acetylamino]hexyl]-5,6-dihydroxy-1,2,3,4-tetrahydro-2-naphthylamine hydrochloride]
23 | 0.1 | 1 | 1.7 | Br.Br.CCCN(CCCCCCNCCSc1ccc(O)cc1)[C@H]1CCc2c(ccc(O)c2O)C1 [Compound 8, (S)-N-propyl-N-[6-[2-(4-hydroxyphenylthio)ethylamino]hexyl]-5,6-dihydroxy-1,2,3,4-tetrahydro-2-naphthylamine dihydrobromide]
22 | 0.15 | 10 | 5 | Br.Br.CCCN(CCCCCCNCCCc1ccc(O)cc1)[C@H]1CCc2c(ccc(O)c2O)C1 [Compound 9, (S)-N-propyl-N-[6-[3-(4-hydroxyphenyl)propylamino]hexyl]-5,6-dihydroxy-1,2,3,4-tetrahydro-2-naphthylamine dihydrobromide]
 |  | 50 | 1.7 | CCCN(CCCCCCNCCc1ccc(O)c(N)c1)[C@H]1CCc2c(ccc(O)c2O)C1.Cl.Cl.Cl [Compound 29, (S)-N-propyl-N-[6-[2-(3-amino-4-hydroxyphenyl)ethylamino]hexyl]-5,6-dihydroxy-1,2,3,4-tetrahydro-2-naphthylamine trihydrochloride]
 |  | 100 | 5 | CCCN(CCCCCCNCCc1ccc(NS(C)(=O)=O)cc1)[C@H]1CCc2c(ccc(O)c2O)C1.Cl.Cl [Compound 31, (S)-N-propyl-N-[6-[2-(4-methylsulphonylaminophenyl)ethylamino]hexyl]-5,6-dihydroxy-1,2,3,4-tetrahydro-2-naphthylamine dihydrochloride]
 |  | 33 | 10 | CCCN(CCCCCCNCCc1ccc(NC(N)=O)cc1)[C@H]1CCc2c(ccc(O)c2O)C1.Cl.Cl [Compound 32, (S)-N-propyl-N-[6-[2-(4-aminocarbonylaminophenyl)ethylamino]hexyl]-5,6-dihydroxy-1,2,3,4-tetrahydro-2-naphthylamine dihydrochloride]
 |  | 5 | 5 | CCCN(CCCCCCNCCc1ccc(NC(C)=O)cc1)[C@H]1CCc2c(ccc(O)c2O)C1.Cl.Cl [Compound 33, (S)-N-propyl-N-[6-[2-(4-acetylaminophenyl)ethylamino]hexyl]-5,6-dihydroxy-1,2,3,4-tetrahydro-2-naphthylamine dihydrochloride]
 |  | 2 | 0.4 | CCCN(CCCCCCNCCc1ccc(C(=O)OC)cc1)[C@H]1CCc2c(ccc(O)c2O)C1.Cl.Cl [Compound 35, (S)-N-propyl-N-[6-[2-(4-methoxycarbonylphenyl)ethylamino]hexyl]-5,6-dihydroxy-1,2,3,4-tetrahydro-2-naphthylamine dihydrochloride]
 |  | 4.5 | 12 | CCCN(CCCCCCNCCc1ccc(CO)cc1)[C@H]1CCc2c(ccc(O)c2O)C1.Cl.Cl [Compound 36, (S)-N-propyl-N-[6-[2-(4-hydroxymethylphenyl)ethylamino]hexyl]-5,6-dihydroxy-1,2,3,4-tetrahydro-2-naphthylamine dihydrochloride]
 |  | 5 | 5 | CCCN(CCCCCCNCCc1ccc(C(N)=O)cc1)[C@H]1CCc2c(ccc(O)c2O)C1.Cl.Cl [Compound 37, (S)-N-propyl-N-[6-[2-(4-carbamoylphenyl)ethylamino]hexyl]-5,6-dihydroxy-1,2,3,4-tetrahydro-2-naphthylamine dihydrochloride]
 |  | 2.5 | 3 | CCCN(CCCCCCNCCc1ccc(S(=O)(=O)O)cc1)[C@H]1CCc2c(ccc(O)c2O)C1.Cl.Cl [Compound 39, (S)-N-propyl-N-[6-[2-(4-sulphophenyl)ethylamino]hexyl]-5,6-dihydroxy-1,2,3,4-tetrahydro-2-naphthylamine dihydrochloride]
 |  | 14 | 3 | CCCN(CCCCCCNCCc1ccc2nc(N)sc2c1)[C@H]1CCc2c(ccc(O)c2O)C1.Cl.Cl.Cl [Compound 40, (S)-N-propyl-N-[6-[2-(2-amino-1,3-benzothiazol-6-yl)ethylamino]hexyl]-5,6-dihydroxy-1,2,3,4-tetrahydro-2-naphthylamine trihydrochloride]
